# Test results from US9060971B2, “Combination pharmaceutical agents as inhibitors of HCV replication” (Enanta Pharmaceuticals, Inc., priority 2010, dated 2015).
# Tested on: HCV 1b genotype replicon
# Test: HCV replicon drug screening assay (quantitative RT-PCR or luciferase), genotype 1b
# Assay type: cell-based
# Conditions: Hepatitis C virus; HCV 1b genotype replicon; quantitative RT-PCR or luciferase assay; read-out: Genotype-1b replicon EC50 Range
# Source text: HCV replicon cell lines (kindly provided by R. Bartenschlager) isolated from colonies as described by Lohman et. al. (Lohman et al. (1999) Science 285: 110-113, expressly incorporated by reference in its entirety) and used for all experiments. The HCV replicon has the nucleic acid sequence set forth in EMBL Accession No.: AJ242651, the coding sequence of which is from nucleotides 1801 to 8406.
# The coding sequence of the published HCV replicon was synthesized and subsequently assembled in a modified plasmid pBR322 (Promega, Madison, Wis.) using standard molecular biology techniques. One replicon cell line (“SGR 11-7”) stably expresses HCV replicon RNA which consists of (i) the HCV 5′UTR fused to the first 12 amino acids of the capsid protein, (ii) the neomycin phosphotransferase gene (neo), (iii) the IRES from encephalomyocarditis virus (EMCV), and (iv) HCV NS2 to NS5B genes and the HCV 3′UTR. Another replicon cell line (“Huh-luc/neo-ET”) described by Vrolijk et. al. (Vrolijk et. al. (2003) Journal of Virological Methods 110:201-209, expressly incorporated by reference in its entirety) stably expresses HCV replicon RNA which consists of (i) the HCV 5′UTR fused to the first 12 amino acids of the capsid protein, (ii) the firefly luciferase reporter gene, (iii) the ubiquitin gene, (iv) the neomycin phosphotransferase gene (neo), (v) the IRES from encephalomyocarditis virus (EMCV), and (vi) HCV NS3 to NS5B genes that harbor cell culture adaptive mutations (E1202G, T12801, K1846T) and the HCV 3′UTR.
# These cell lines are maintained at 37° C., 5% CO2, 100% relative humidity in DMEM (Cat#11965-084, Invitrogen), with 10% fetal calf serum (“FCS”, Invitrogen), 1% non-essential amino acids (Invitrogen), 1% of Glutamax (Invitrogen), 1% of 100× penicillin/streptomycin (Cat#15140-122, Invitrogen) and Geneticin (Cat#10131-027, Invitrogen) at 0.75 mg/ml or 0.5 mg/ml for 11-7 and Huh-luc/neo-ET cells, respectively.
# EC50 values of single agent compounds and combinations were determined by HCV RNA detection using quantitative RT-PCR, according to the manufacturer's instructions, with a TAQMAN® One-Step RT-PCR Master Mix Reagents Kit (Cat#AB 4309169, Applied Biosystems) on an ABI Model 7500 thermocycler. The TaqMan primers to use for detecting and quantifying HCV RNA are 5′-GCTGCGGCCTGTCGAGCT-3′ (SEQ ID NO: 1), 5′-CAAGGTCGTCTCCGCATAC-3′ (SEQ ID NO: 2) and the probe 5′-FAM-[…]-BHQ-3′ (SEQ ID NO: 3) obtained from Integrated DNA Technologies. HCV RNA is normalized to GAPDH RNA levels in drug-treated cells, which is detected and quantified using the Human GAPDH Endogenous Control Mix (Applied Biosystems, AB 4310884E). Total cellular RNA is purified from 96-well plates using the RNAqueous 96 kit (Ambion, Cat#AM1812). Chemical agent cytotoxicity was evaluated using an MTS assay according to the manufacturer's directions (Promega).
# The compounds described herein can be effective against the HCV 1b genotype. It should also be understood that the compounds can inhibit multiple genotypes of HCV. In one embodiment, compounds of Formula (I) are active against the 1a, 1b, 2a, 2b, 3a, 4a, and 5a genotypes. […] The EC50 ranges were classified into the following groups: A>10 nM; B 1-10 nM; C<1 nM. The potential cytotoxicities of each agent were analyzed in parallel by MTS assay and are greater than 3 uM for all agents.
row,SMILES,EC50
1,COC(=O)N[C@@H](C(=O)N1CCC[C@H]1c1nc2cc(CC=CCc3ccc4[nH]c([C@@H]5CCCN5C(=O)[C@H](NC(=O)OC)c5ccccc5)nc4c3)ccc2[nH]1)c1ccccc1 [Compound 28],< 1 nM
2,COC(=O)N[C@H](C(=O)N1CCC[C@H]1c1nc2cc(C#Cc3ccc(-c4c[nH]c([C@@H]5CCCN5C(=O)[C@H](NC(=O)OC)C(C)C)n4)cc3)ccc2[nH]1)C(C)C [Compound 88],< 1 nM
3,COC(=O)N[C@H](C(=O)N1CCC[C@H]1c1ncc(-c2ccc([C@@H]3C[C@H]3c3ccc4nc([C@@H]5CCCN5C(=O)[C@@H](NC(=O)OC)C(C)C)[nH]c4c3)cc2)[nH]1)C(C)C [Compound 73],< 1 nM
4,CCC(NC(=O)OC)(C(=O)N1CCC[C@H]1c1nc2ccc(C#Cc3ccc(-c4cnc([C@@H]5CCCN5C(=O)[C@@H](NC(=O)OC)C(C)C)[nH]4)cc3)cc2[nH]1)c1ccccc1 (stereo partly drawn) [Compound 102],< 1 nM
5,COC(=O)N[C@H](C(=O)N1CCC[C@H]1c1nc2cc(-c3ccc4cc(-c5ccc6[nH]c([C@@H]7CCCN7C(=O)[C@@H](NC(=O)OC)C(C)C)nc6c5)ccc4c3)ccc2[nH]1)C(C)C [Compound 20],< 1 nM
6,COC(=O)N[C@H](C(=O)N1CCC[C@H]1c1nc(-c2ccc(C#Cc3ccc4[nH]c([C@@H]5CCCN5C(=O)[C@@H](c5ccccc5)C(C)C)nc4c3)cc2)c[nH]1)C(C)C [Compound 82],< 1 nM
7,[2H]c1c([2H])c(-c2c[nH]c([C@@H]3CCCN3C(=O)[C@@H](NC(=O)OC)C(C)C)n2)c([2H])c([2H])c1C#Cc1ccc2[nH]c([C@@H]3CCCN3C(=O)[C@@H](NC(=O)OC)C(C)C)nc2c1 [Compound 67],< 1 nM
8,COC(=O)N[C@H](C(=O)N1CCC[C@H]1c1ncc(-c2ccc([C@H]3C[C@@H]3c3ccc4nc([C@@H]5CCCN5C(=O)[C@@H](NC(=O)OC)C(C)C)[nH]c4c3)cc2)[nH]1)C(C)C [Compound 72],< 1 nM
9,COC(=O)N[C@H](C(=O)N1CCC[C@H]1c1nc(CCc2ccc(-c3ccc4[nH]c([C@@H]5CCCN5C(=O)[C@@H](NC(=O)OC)C(C)C)nc4c3)cc2)c[nH]1)C(C)C [Compound 56],< 1 nM
10,COC(=O)N[C@H](C(=O)N1CCC[C@H]1c1ncc(-c2ccc(C#Cc3ccc4nc([C@@H]5CCCN5C(=O)[C@@H](NC(=O)OC)[C@@H](C)O)[nH]c4c3)cc2)[nH]1)[C@@H](C)O [Compound 97],< 1 nM
11,COC(=O)N[C@@H](C(=O)N1CCC[C@H]1c1nc(-c2ccc(C#Cc3ccc4[nH]c([C@@H]5CCCN5C(=O)[C@H](NC(=O)OC)c5ccccc5)nc4c3)cc2)c[nH]1)c1ccccc1 [Compound 36],< 1 nM
12,COC(=O)N[C@H](C(=O)N1CCC[C@H]1c1nc(-c2ccc3cc(C#Cc4ccc5[nH]c([C@@H]6CCCN6C(=O)[C@@H](NC(=O)OC)C(C)C)nc5c4)ccc3c2)c[nH]1)C(C)C [Compound 60],< 1 nM
13,COC(=O)N[C@H](C(=O)N1CCC[C@H]1c1nc(-c2ccc(CCc3ccc4[nH]c([C@@H]5CCCN5C(=O)[C@@H](NC(=O)OC)C(C)C)nc4c3)s2)c[nH]1)C(C)C [Compound 46],< 1 nM
14,COC(=O)N[C@H](C(=O)N1CCC[C@H]1c1nc(-c2ccc(C#Cc3ccc4[nH]c([C@@H]5CCCN5C(=O)[C@@H](NC(C)=O)C(C)C)nc4c3)cc2)c[nH]1)C(C)C [Compound 81],< 1 nM
15,CCC[C@H](NC(=O)OC)C(=O)N1CCC[C@H]1c1nc2cc(C#Cc3ccc(-c4c[nH]c([C@@H]5CCCN5C(=O)[C@@H](NC(=O)OC)C(C)C)n4)cc3)ccc2[nH]1 [Compound 78],< 1 nM
16,COC(=O)N[C@H](C(=O)N1CCC[C@H]1c1nc(-c2ccc(-c3ccc(-c4ccc5[nH]c([C@@H]6[C@H]7CC[C@H](C7)N6C(=O)[C@@H](NC(=O)OC)C(C)C)nc5c4)cc3)cc2)c[nH]1)C(C)C [Compound 124],< 1 nM
17,COC(=O)N[C@H](C(=O)N1CCC[C@H]1c1nc2cc(C#Cc3ccc(-c4c[nH]c([C@@H]5CCCN5C(=O)[C@@H](c5ccccc5)C(C)C)n4)cc3)ccc2[nH]1)C(C)C [Compound 87],< 1 nM

row,SMILES,EC50
1,C=C1C[C@@H](c2nc(-c3ccc(C#Cc4ccc5[nH]c([C@@H]6CCCN6C(=O)[C@@H](NC(=O)OC)C(C)C)nc5c4)cc3)c[nH]2)N(C(=O)[C@@H](NC(=O)OC)C(C)C)C1 [Compound 118],< 1 nM
2,COC(=O)N[C@H](C(=O)N1CCC[C@H]1c1nc2cc(C#Cc3ccc(-c4c[nH]c(C5[C@H]6CC[C@H](C6)N5C(=O)[C@@H](NC(=O)OC)C(C)C)n4)cc3)ccc2[nH]1)C(C)C (stereo partly drawn) [Compound 122],< 1 nM
3,COC(=O)N[C@H](C(=O)N1CCC[C@H]1c1nc(-c2ccc3cc(/C=C/c4ccc5[nH]c([C@@H]6CCCN6C(=O)[C@@H](NC(=O)OC)C(C)C)nc5c4)ccc3c2)c[nH]1)C(C)C [Compound 61],< 1 nM
4,COC(=O)N[C@@H](C(=O)N1CCC[C@H]1c1ncc(-c2ccc(CCc3ccc4nc([C@@H]5CCCN5C(=O)[C@H](NC(=O)OC)c5ccccc5)[nH]c4c3)cc2)[nH]1)c1ccccc1 [Compound 37],< 1 nM
5,COC(=O)N[C@H](C(=O)N1CCC[C@H]1c1nc(-c2ccc(C#Cc3ccc4[nH]c([C@@H]5CCCN5C(=O)[C@H](NC(=O)OC)c5ccccc5)nc4c3)cc2)c[nH]1)C(C)C [Compound 79],< 1 nM
6,COC(=O)N[C@H](C(=O)N1CCC[C@H]1c1nc2cc(-c3ccc4cc(-c5c[nH]c([C@@H]6CCCN6C(=O)[C@@H](NC(=O)OC)[C@@H](C)OC)n5)ccc4c3)ccc2[nH]1)C(C)C [Compound 52],< 1 nM
7,COC(=O)N[C@H](C(=O)N1CCC[C@H]1c1nc(-c2ccc(C#Cc3ccc4[nH]c([C@@H]5[C@H]6CC[C@H](C6)N5C(=O)[C@@H](NC(=O)OC)C(C)C)nc4c3)cc2)c[nH]1)C(C)C [Compound 123],< 1 nM
8,COC(=O)N[C@H](C(=O)N1CCC[C@H]1c1nc(-c2ccc(C#Cc3ccc4[nH]c([C@@H]5CC(F)(F)CN5C(=O)[C@@H](NC(=O)OC)C(C)C)nc4c3)cc2)c[nH]1)C(C)C [Compound 92],< 1 nM
9,COC(=O)N[C@@H](C(=O)N1CCC[C@H]1c1ncc(-c2ccc(-c3ccc4[nH]c([C@@H]5CCCN5C(=O)[C@H](NC(=O)OC)c5ccccc5)nc4c3)cc2)[nH]1)c1ccccc1 [Compound 35],< 1 nM
10,COC(=O)N[C@@H](C(=O)N1CCC[C@H]1c1nc2ccc(C#Cc3ccc(-c4cnc([C@@H]5CCCN5C(=O)[C@H](NC(=O)OC)c5ccccc5)o4)cc3)cc2[nH]1)c1ccccc1 [Compound 103],< 1 nM
11,COC(=O)N[C@@H](C(=O)N1CCC[C@H]1c1nc(-c2ccc(CCc3ccc4[nH]c([C@@H]5CCCN5C(=O)[C@H](NC(=O)OC)c5ccccc5)nc4c3)cc2)n[nH]1)c1ccccc1 [Compound 40],< 1 nM
12,COC(=O)N[C@H](C(=O)N1CCC[C@H]1c1nc2cc(-c3ccc(-c4ccc5[nH]c([C@@H]6CCCN6C(=O)[C@@H](NC(=O)OC)C6CCCC6)nc5c4)cc3)ccc2[nH]1)C1CCCC1 [Compound 24],< 1 nM
13,CCOC(=O)N[C@H](C(=O)N1CCC[C@H]1c1nc2cc(C#Cc3ccc(-c4c[nH]c([C@@H]5CCCN5C(=O)[C@@H](NC(=O)OC)C(C)C)n4)cc3)ccc2[nH]1)C(C)C [Compound 63],< 1 nM
14,COC(=O)N[C@H](C(=O)N1CCC[C@H]1c1nc(-c2ccc3cc(-c4ccc5[nH]c([C@@H]6CCCN6C(=O)[C@@H](NC(=O)OC)C(C)C)nc5n4)ccc3c2)c[nH]1)C(C)C [Compound 114],< 1 nM
15,CC[C@H](C)[C@H](NC(=O)OC)C(=O)N1CCC[C@H]1c1ncc(-c2ccc(C#Cc3ccc4nc([C@@H]5CCCN5C(=O)[C@@H](NC(=O)OC)[C@@H](C)CC)[nH]c4c3)cc2)[nH]1 [Compound 96],< 1 nM
16,COC(=O)N[C@H](C(=O)N1CCC[C@H]1c1nc2cc(C#Cc3ccc(-c4c[nH]c([C@@H]5CCCN5C(=O)[C@@H](NC(C)=O)C(C)C)n4)cc3)ccc2[nH]1)C(C)C [Compound 86],< 1 nM
